Patent publication US20160375103A1, “DIURETIC AND NATRIURETIC POLYPEPTIDES” (Mayo Foundation for Medical Education and Research, priority 2006, published 2016)

Columns and labels:
normal dogs = assay: intravenous infusion of ASBNP.1 in normal dogs; assay type: in vivo, dog
Experimental: A truncated form of ASBNP that terminates prior to the cysteine and contains a 13 amino acid C-terminus tail was designed and synthesized. This polypeptide is referred to as an ASBNP.1 polypeptide (FIG. 1). The biological effects of intravenous ABNP.1 infusion were tested in normal dogs. Briefly, six normal dogs were infused with 2, 10, and 100 pmol of an ASBNP.1 polypeptide preparation, i.e., each dog received consecutive infusions of 2, 10, and 100 pmol of an ASBNP.1 polypeptide preparation. Urine flow, urinary sodium excretion, distal fractional tubular sodium reabsorption, proximal tubular fractional sodium reabsorption, mean arterial blood pressure, plasma cGMP levels, glomerular filtration rate, renal blood flow, and plasma renin levels were measured as described elsewhere (Chen et al., Am. J. Physiol. Regul. Integr. Comp. Physiol., 288: R1093-R1097 (2005) and Haber et al., J. Clin. Endocrinol. Metab., 29:1349-1355 (2005)). […] Systemic administration of the ASBNP.1 polypeptide had no effect on glomerular filtration rate, renal blood flow, or mean arterial blood pressure (FIGS. 8-10).

HUVECs = assay: cGMP levels in HUVECs; assay type: cell-based, human
Excerpt: FIG. 11 is a bar graph plotting cGMP levels in HUVECS treated with BNP, ASBNP, or ASBNP.1 at the indicated concentrations. OX represents oxidized, and non-OX represents non-oxidized.
(§1) In some embodiments, a polypeptide provide herein can lack the ability to stimulate production of cGMP in human umbilical vascular endothelial cells (HUVEC). Intracellular cGMP production can be assayed using, for example, the BIOTRACK cGMP enzyme immunoassay kit (Amersham Pharmacia Biotech). In other embodiments, a polypeptide provide herein can lack vasoactivity. Vasoactivity can be assessed by determining responsitivity of a blood vessel (e.g., a carotid artery in an organ chamber) to the polypeptide.
(§2) The following experiments were performed to compare the activities of BNP, ASBNP, and ASBNP.1 polypeptides. Briefly, synthesized forms of BNP, ASBNP, and ASBNP.1 were administered to HUVECs and HASMCs, and cGMP levels were determined.

HASMCs = assay: cGMP levels in HASMCs; assay type: cell-based
Experimental: FIG. 12 is a bar graph plotting cGMP levels in HASMCS treated with BNP, ASBNP, or ASBNP.1 at the indicated concentrations. OX represents oxidized, and non-OX represents non-oxidized.
as §2

[1] = system: rabbit artery that was pre-constricted; assay: vasoactivity in pre-constricted rabbit artery (vascular rings); conditions: compared with BNP
Excerpt: FIG. 13 is a line graph plotting vasoactivity measurements obtained from rabbit vascular rings treated with either BNP, ASBNP, or ASBNP.1 at the indicated concentrations.
as §1, §2

[2] = system: paced dog model of congestive heart failure (CHF); assay: intravenous infusion in paced dog model of congestive heart failure (CHF), consecutive doses; assay type: in vivo; conditions: paced CHF dogs
Experimental: The biological effects of intravenous ABNP.1 infusion were tested in a paced dog model of congestive heart failure (CHF). Briefly, 10 dogs underwent surgical implantation of a programmable cardiac pacemaker (Medtronic, Minneapolis, Minn.). After postoperative recovery, the animals received 11 days of rapid ventricular pacing (240 beats/minute), which can induce overt congestive heart failure CHF as described elsewhere (Chen et al., Circulation, 100:2443-2448 (1999)). The dogs were intravenously infused with 2, 10, and 100 pmol of an ASBNP.1 polypeptide preparation, i.e., each dog received consecutive infusions of 2, 10, and 100 pmol of an ASBNP.1 polypeptide preparation.
Acute hemodynamic studies were performed at the time of infusion, and comparisons were made between groups and among dogs at baseline and during each infusion. Urine flow, urinary sodium excretion, distal fractional tubular sodium reabsorption, proximal tubular fractional sodium reabsorption, plasma cGMP levels, rennin levels, glomerular filtration rate, renal blood flow, mean arterial blood pressure, urinary cGMP excretion, urinary ANP excretion, urinary BNP excretion, plasma BNP levels, plasma ANP levels, pulmonary capillary wedge pressure, cardiac output, systemic vascular resistance, angiotensin II levels, and aldosterone levels were measured as described elsewhere (Chen et al., Am. J. Physiol. Regul. Integr. Comp. Physiol., 288: R1093-R1097 (2005) and Haber et al., J. Clin. Endocrinol. Metab., 29:1349-1355 (2005)). […] There was no effect on distal tubular fractional sodium reabsorption, proximal tubular fractional sodium reabsorption renal blood flow, plasma cGMP, mean arterial blood pressure, plasma BNP, plasma ANP, pulmonary capillary wedge pressure, or angiotensin II levels (FIGS. 17, 18, 19, 22, 23, 28, 29, and 32).

paced dogs = assay: 90 minute infusion of ASBNP.1 (100 pmol/kg/minute) in paced dogs; assay type: in vivo, dog; conditions: 100 pmol/kg/minute for 90 minutes
Experimental: FIG. 34 is a graph plotting urinary sodium excretion (microEq/min) in paced dogs at the indicated times after beginning administration of ASBNP.1 polypeptide (100 pmol/kg/minute) for 90 minutes. BL=baseline; 30 min=30 minutes of ASBNP.1 polypeptide administration; 60 min=60 minutes of ASBNP.1 polypeptide administration; 90 min=90 minutes of ASBNP.1 polypeptide administration; Washout=after washout period at stop of infusion; Rec 1=30 minutes after stopping infusion; and Rec 2=60 minutes after stopping infusion.
In another experiment, an ASBNP.1 polypeptide preparation was administered to dogs (100 pmol/kg/minute for 90 minutes). Urinary sodium excretion, urine flow, mean arterial blood pressure, renal blood flow, pulmonary capillary wedge pressure, and cardiac output were measured after 30, 60, and 90 minutes of administering the ASBNP.1 polypeptide. Administration of ASBNP.1 polypeptide was followed by a washout period of 30 minutes. The washout was performed by administering normal saline. Urinary sodium excretion, urine flow, mean arterial blood pressure, renal blood flow, pulmonary capillary wedge pressure, and cardiac output were measured again after the washout period, and after each of two recovery periods at 60 minutes (Rec 1) and 90 minutes (Rec 2) after administration of the ASBNP.1 polypeptide.

[3] = normal dogs, 2, 10, 100 pmol i.v.
[4] = normal dogs, consecutive i.v. infusions of 2, 10, 100 pmol
[5] = consecutive i.v. infusions of 2, 10, 100 pmol

Substance: ASBNP.1: truncated form of ASBNP that terminates prior to the cysteine, 13 amino acid C-terminus tail; 42 amino acid residues (SEQ ID NO:1) (SPKMVQGSGCFGRKMDRISSSSGLGCKGKHPLPPRPPSPIPV)
- distal and proximal tubular fractional sodium reabsorption (normal dogs; [3]): targeted distal tubules
- glomerular filtration rate (normal dogs; [3]): no effect
- mean arterial blood pressure (normal dogs; [3]): no effect
- renal blood flow (normal dogs; [3]): no effect
- urinary sodium excretion (natriuretic effect) (normal dogs; [4]): diuretic and natriuretic effects
- urine flow (diuretic effect) (normal dogs; [4]): diuretic and natriuretic effects
- plasma cGMP (normal dogs; normal dogs, super high is 100 pmol): elevated at the super high dose
- plasma renin (normal dogs; normal dogs, two higher doses 10 and 100 pmol): trend towards a decreased renin at the two higher doses
- cGMP levels in HUVECs (HUVECs): no effect
- cGMP levels in HASMCs (HASMCs): no effect
- vasoactivity on pre-constricted rabbit artery [1]: no effect
- aldosterone [2]: increased from the administration of the low level of polypeptide and continued to increase throughout the remainder of the experiment
- angiotensin II levels [2]: no effect
- cardiac output [2]: decreased from the administration of the high level of polypeptide and remained decrease throughout the remainder of the experiment
- distal tubular fractional sodium reabsorption [2]: no effect
- mean arterial blood pressure [2]: no effect
- plasma ANP [2]: no effect
- plasma BNP [2]: no effect
- plasma cGMP [2]: no effect
- proximal tubular fractional sodium reabsorption [2]: no effect
- pulmonary capillary wedge pressure [2]: no effect
- renal blood flow [2]: no effect
- renin [2]: increased throughout the washout period
- systemic vascular resistance [2]: increased during the high, super high, washout, and recovery 1 phases
- urinary sodium excretion (natriuretic effect) [2, 5]: diuretic but not natriuretic effects
- urine flow (diuretic effect) [2, 5]: diuretic but not natriuretic effects
- glomerular filtration rate ([2]; high is 10 pmol): increased glomerular filtration rate at the high level
- urinary cGMP excretion ([2]; high is 10 pmol, super high is 100 pmol): increased urinary cGMP excretion at the high and super high levels
- urinary ANP excretion ([2]; high level (10 pmol)): increased urinary ANP excretion
- urinary BNP excretion ([2]; super high level (100 pmol)): increased urinary BNP excretion
- PAP (pulmonary arterial pressure) (paced dogs): without a change
- RAP (right arterial pressure) (paced dogs): without a change
- cardiac output (paced dogs): No significant effect
- mean arterial blood pressure (paced dogs): No significant effect
- renal blood flow (paced dogs): No significant effect
- urinary sodium excretion (paced dogs): increase
- urine flow (paced dogs): increase
- pulmonary capillary wedge pressure (paced dogs; 60 minutes after administration): decrease

Substance: ASBNP: variant form of BNP generated by alternative splicing, 60 amino acid residues in length (SEQ ID NO:4) (SPKMVQGSGCFGRKMDRISSSSGLGCKGKHPLPPRPPSPIPVCDTVRVTLGFVVSGNHTL) [reference compound]
- cGMP levels in HUVECs (HUVECs): minimal effects
- cGMP levels in HASMCs (HASMCs): minimal effects
- vasoactivity on pre-constricted rabbit artery [1]: no effect
